Here are results for 16 molecules from patent US20140378451A1, “Cannabinoid-2-Receptor Agonists” (ISIS INNOVATION LIMITED, priority 2011, published 2014).

Each structure is given as a SMILES string. pIC50: −log10 of the molar value.

Assay [1] has as its target T1, hCB2R (Homo sapiens, UniProt P34972).
T1 construct: unnamed tag of the plasmid; expressed in transfected cells
Nature of the assay: cAMP assay on hCB2R clone 3D8.3 (transfected CHO-K1 cells). In kind it is cell-based. The conditions noted are these: for pIC50: cAMP, hCNR2 CHO-K1 3D8.3 clone, read-out: Assay 1 IC50. As to the method:
(§1) Compounds were evaluated for their CB2R agonist potency in the following assays:
Assay 1—cAMP Assay on hCB2R Clone 3D8.3:
Chinese hamster ovary cells (CHO)-K1 were transfected with hCB2R plasmid using Genejuice (Merck). After 48 h the cells were transferred into flasks in the presence of the antibiotic G418 and expanded (with continuous replenishment of the antibiotic). Two single-cell cloning rounds were then performed, followed by verification of the presence of the tag of the plasmid and confirming the receptor was functional in cAMP studies. For the screening of compounds: Briefly, hCNR2 CHO-K1 (3D8.3 clone) cells were plated in Optimem+1% FCS (30000 cells, 100 ul per well) in half-area 96-well plates (Corning 3885) and placed in an incubator 37° C. 5% CO2 overnight. Next day, the medium was aspirated and replaced with ‘antibody solution’ (22.5 ul) (provided concentrated, diluted 1 in 3 with ‘assay buffer’ provided). The freshly made compounds (at a ×4 final concentration) or solvent alone (1.2% DMSO) were added to the wells and incubated for 30 minutes in a 37° C. incubator 5% CO2. A mixture of: Lysis solution (38%), substrates (Emerald-II™ (10%) and Galacton-Star® (2%)) and enzyme donor-labeled cAMP (50%) was added to the wells and incubated in the dark for one hour at room temperature. 30 μl of detection reagent (enzyme acceptor, provided) was then added to the wells and incubated in the dark for 3 hours at room temperature. The luminescence was then read with a Perkin-Elmer luminometer.
For orientation: Cyclic AMP is a second messenger, typically raised through Gs and lowered through Gi signalling.

Assay [2] has as its target T2, hCNR2 (CB2R) (Homo sapiens, UniProt P34972).
T2 construct: host or cells: CHO-K1 (purchased recombinant cell line)
The experiment in a line: DiscoveRx cAMP Hunter Express GPCR assay (hCNR2 CHO-K1 cells). The following applies: for pIC50: cAMP Hunter eXpress, hCNR2 CHO-K1 cells, read-out: Assay 2 IC50. In kind it is cell-based. The method, then: as §1
Assay 2—DiscoveRx cAMP Hunter Express GPCR Assay
The cAMP Hunter eXpress GPCR assay kit and cells used are from DiscoveRx Corporation (95-0040E2) using the manufacturer's protocol without the optional IBMX step. […] Briefly, hCNR2 CHO-K1 cells were plated in the provided medium (50 ul per well) in half-area 96-well plates (Corning 3885) and placed in an incubator 37° C. 5% CO2 overnight. Next day, the medium was aspirated and replaced with ‘antibody solution’ (22.5 ul) (provided concentrated, diluted 1 in 3 with ‘assay buffer’ provided). The freshly made compounds (at a ×4 final concentration) or solvent alone (1.2% DMSO) were added to the wells and incubated for 30 minutes in a 37° C. incubator 5% CO2. A mixture of lysis solution and two substrates (provided with the DiscoveRx kit) was added to the wells and incubated in the dark for one hour at room temperature. A detection reagent (provided) was then added to the wells and incubated in the dark for 3 hours at room temperature. The luminescence was then read with a Perkin-Elmer luminometer.

T2 sequence (P34972 whole entry): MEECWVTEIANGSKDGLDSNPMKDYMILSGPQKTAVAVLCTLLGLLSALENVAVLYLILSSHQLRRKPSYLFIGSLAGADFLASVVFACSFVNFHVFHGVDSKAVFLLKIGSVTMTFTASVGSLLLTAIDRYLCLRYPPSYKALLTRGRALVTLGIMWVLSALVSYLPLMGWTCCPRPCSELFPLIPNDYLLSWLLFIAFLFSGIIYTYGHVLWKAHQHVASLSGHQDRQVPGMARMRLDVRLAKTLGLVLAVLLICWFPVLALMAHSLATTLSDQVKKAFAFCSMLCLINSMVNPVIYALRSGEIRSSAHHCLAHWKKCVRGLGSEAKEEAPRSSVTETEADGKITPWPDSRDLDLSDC
T1 sequence (P34972 whole entry): as above

For orientation: pIC50 means −log10 of the IC50, conventionally taken in molar units. Turning to `N#Cc1ccccc1CSc1nnc2c3ccccc3n(Cc3ccccc3[N+](=O)[O-])c2n1` [Example 10, 2′-(((5-(2″-Nitrobenzyl)-5H-[1,2,4]triazino[5,6-b]indol-3-yl)thio)methyl)benzonitrile], the pIC50 was 6.45 in assay [1] and 7.28 in assay [2].
For `O=[N+]([O-])c1ccc(CSc2nnc3c(n2)[nH]c2ccccc23)c([N+](=O)[O-])c1` [Example 11, 3-((2′,4′-Dinitrobenzyl)thio)-5H-[1,2,4]triazino[5,6-b]indole] the same measures were 5.41 and 6.24.
For the molecule `O=[N+]([O-])c1cccc(F)c1CSc1nnc2c(n1)[nH]c1ccccc12` [Example 12, 3-((2′-Fluoro-6′-nitrobenzyl)thio)-5H-[1,2,4]triazino[5,6-b]indole], the pIC50 was 5.72 in assay [1] and 6.27 in assay [2].
For `O=[N+]([O-])c1ccccc1CSc1nnc2c3ccccc3n(Cc3ccccc3F)c2n1` [Example 13] the same measures were 6.70 and 6.70.
Turning to `CN(C)c1ccc(C(=O)n2c3ccccc3c3nnc(SCc4ccccc4C#N)nc32)cc1` [Example 16], in assay [1] (at 3 μM), the “Assay 1 activity at 3 μM” value was roughly 40% activity at 3 μM. In assay [2] (at 1 and 3 μM), the “Assay 2 decrease at 1 and 3 μM” value was 20% decrease at 1 and 3 μM.
`N#Cc1ccccc1CSc1nnc2c3ccccc3n(C(=O)C3CCCCC3)c2n1` [Example 18, 2′-(((5-(Cyclohexanecarbonyl)-5H-[1,2,4]triazino[5,6-b]indol-3-yl)thio)methyl)benzonitrile]: the pIC50 in assay [1] was 7.92; in assay [2], 7.49.
For `N#Cc1ccccc1CSc1nnc2c3ccccc3n(C(=O)c3cccc(C(F)(F)F)c3)c2n1` [Example 19] the same measures were 7.24 and 7.57.
For `N#Cc1ccccc1CSc1nnc2c3ccccc3n(C(=O)c3ccc(F)cc3)c2n1` [Example 20, 2′-(((5-(4″-Fluorobenzoyl)-5H-[1,2,4]triazino[5,6-b]indol-3-yl)thio)methyl)benzonitrile] the same measures were 7.49 and 7.24.
On to `N#Cc1ccccc1CSc1nnc2c3ccccc3n(C(=O)c3ccc(OC(F)(F)F)cc3)c2n1` [Example 21, 2′-(((5-(4″-(Trifluoromethoxy)benzoyl)-5H-[1,2,4]triazino[5,6-b]indol-3-yl)thio)methyl)benzonitrile], for which the pIC50 in assay [1] was 6.95; in assay [2], 7.14.
For `N#Cc1ccccc1CSc1nnc2c3ccccc3n(C(=O)C3CCCC3)c2n1` [Example 22, 2′-(((5-(Cyclopentanecarbonyl)-5H-[1,2,4]triazino[5,6-b]indol-3-yl)thio)methyl)benzonitrile] the same measures were 7.85 and 7.31.
For `N#Cc1ccccc1CSc1nnc2c3ccccc3n(C(=O)c3ccco3)c2n1` [Example 23, 2′-(((5-(Furan-2″-carbonyl)-5H-[1,2,4]triazino[5,6-b]indol-3-yl)thio)methyl)benzonitrile] the same measures were 7.51 and 7.34.
For `N#Cc1ccccc1CSc1nnc2c3ccccc3n(C(=O)c3ccno3)c2n1` [Example 24, 2′-(((5-(Isoxazole-5″-carbonyl)-5H-[1,2,4]triazino[5,6-b]indol-3-yl)thio)methyl)benzonitrile] the same measures were 7.85 and 7.72.
For the molecule `N#Cc1ccccc1CSc1nnc2c3ccccc3n(C(=O)c3ccccc3)c2n1` [Example 25], the figures for the pIC50 in assay [1] and in assay [2] were 7.42 and 6.95, respectively.
For `COC(=O)CCC(=O)n1c2ccccc2c2nnc(SCc3ccccc3C#N)nc21` [Example 26, methyl 4″-(3-((2′-cyanobenzyl)thio)-5H-[1,2,4]triazino[5,6-b]indol-5-yl)-4″-oxobutanoate] the same measures were 7.37 and 7.32.
For `COC(=O)CCCC(=O)n1c2ccccc2c2nnc(SCc3ccccc3C#N)nc21` [Example 27, methyl 5″-(3-((2′-cyanobenzyl)thio)-5H-[1,2,4]triazino[5,6-b]indol-5-yl)-5″-oxopentanoate] the same measures were 7.35 and 7.38.
Regarding `CCCCSc1nnc2c(n1)[nH]c1ccccc12` [Example 28, 3-(butylthio)-5H-[1,2,4]triazino[5,6-b]indole], the pIC50 in assay [1] and in assay [2] was 7.02 throughout.
